Measurements reported in ChEMBL document CHEMBL3045852, “Synthesis of limonoid CDE fragments related to limonin and nimbinim” (2010).

Tested on: Spodoptera littoralis
Test: Antifeedant activity against Spodoptera littoralis
Assay type: functional

SMILES | AFI
CC1(C)CC(=O)C[C@@]2(C)[C@H](c3ccsc3)C(=O)[C@H]3O[C@@]312 | 24%
CC1(C)CC(=O)C[C@@]2(C)[C@H](c3ccoc3)C(=O)[C@H]3O[C@@]312 (relative stereo) | 45%
